Drawing on patent publication US20160185797A1, “ALKYNYL ALCOHOLS AND METHODS OF USE” (Genentech, Inc., priority 2013, published 2016), this text covers Ki and IC50 for 21 compounds.

Structures are written as SMILES.

In assay [1] the target is T1, nuclear factor-kappa B (NF-kB)-inducing kinase (NIK) (Homo sapiens, UniProt Q99558).
T1 construct: made in house; host or cells: baculovirus-infected insect cells
Description: NIK enzyme inhibition assay (Transcreener ADP fluorescence polarization, NIK ADP-FP). Type of assay: biochemical.
Description: NIK Enzyme Inhibition Assay:
The ability of the nuclear factor-kappa B (NF-kB)-inducing kinase (NIK) to catalyze the hydrolysis of adenosine-5′-triphosphate (ATP) was monitored using the Transcreener ADP (adenosine-5′-diphosphate) assay (BellBrook Labs). […] Reactions were quenched by the addition of 20 mM 2,2′,2″,2′″-(ethane-1,2-diyldinitrilo)tetraacetic acid and 0.01% Brij 35. The tracer bound to the antibody was displaced by the ADP generated during the NIK reaction, which causes a decrease in fluorescence polarization that was measured by laser excitation at 633 nm with a Fluorescence Correlation Spectroscopy Plus reader (Evotec AG). Equilibrium dissociation constant (Ki) values for NIK inhibitors are calculated from plots of activity vs. inhibitor concentration using Morrison's quadratic equation that accounts for the potential of tight binding, and by also applying the conversion factor that accounted for competitive inhibition and the concentration of substrate used in the assay relative to its Michaelis constant (Km).

The test system of assay [2] is REL-A (p65) nuclear translocation in HeLa cells. Briefly: REL-A (p65) nuclear translocation assay in HeLa cells, TNF-α stimulated (classical NF-kB signaling), high content imaging. The format is cell-based. The following applies: Homo sapiens, HeLa, compound 4.5 h, then 10 ng/mL TNF-α for 30 minutes, read-out: REL-A HeLa Transloc Assay (IC50). How it is done: (§1) Several assays were developed to profile the cellular activities of NIK inhibitors.
(§2) (2) A second set of cell assay are used to define the selectivity of NIK inhibitors toward inhibition of classical vs. non-classical NF-kB signaling and rely on quantification of the nuclear translocation of p52 (NF-kB2) and REL-A (p65) using high content cellular imaging. For the p52 (non-classical NF-kB signaling) nuclear translocation assay, HeLa cells are treated with different concentrations of compounds (0.2% DMSO final) in medium containing 10% fetal bovine serum and then stimulated with 100 ng/mL of an anti-lymphotoxin beta receptor antibody (R&D Systems) for 5 hours. In the REL-A nuclear translocation assay, HeLa cells are incubated with compounds (0.2% DMSO final) for 4.5 hours in medium containing 10% fetal bovine serum before stimulating them with 10 ng/mL tumor necrosis factor (TNF)-α (R&D Systems) for 30 minutes. Cells are fixed with 4% paraformaldehyde, permeabilized by adding 0.1% Triton X-100 in phosphate buffered saline, and then are incubated with either 2 ug/mL anti-p52 antibody (Millipore) or 400 ng/mL anti-REL-A (p65) antibody (Santa Cruz Biotechnology). Finally, the cells are incubated with an Alexa488-labeled secondary antibody (Invitrogen) and DRAQ5 DNA stain (Biostatus). Imaging is carried out using an Opera reader (Perkin Elmer) and data are analyzed with the aid of Acapella software (Perkin Elmer). The p52 or REL-Atranslocation into the nucleus is quantified by the ratio of the nuclear to cytoplasmic signal intensity. […] The compounds in listed in Table 1 have the corresponding inhibitory value (IC50 in micromolar) for NIK p52 Translocation Assay as set forth in Table 2.
(§3) The compounds in listed in Table 1 have the corresponding inhibitory values (IC50 in micromolar) for the Translocation Assays as set forth in Table 2.

For assay [3], the system named is p52 (NF-kB2) nuclear translocation in HeLa cells. Description: p52 (NF-kB2) nuclear translocation assay in HeLa cells, anti-lymphotoxin beta receptor antibody stimulated (non-classical NF-kB signaling), high content imaging. The format is cell-based. The following applies: Homo sapiens, 100 ng/mL anti-lymphotoxin beta receptor antibody for 5 hours, read-out: p52 HeLa Transloc Assay (IC50). How it is done: as §1, §2, §3

T1 sequence (Q99558 whole entry): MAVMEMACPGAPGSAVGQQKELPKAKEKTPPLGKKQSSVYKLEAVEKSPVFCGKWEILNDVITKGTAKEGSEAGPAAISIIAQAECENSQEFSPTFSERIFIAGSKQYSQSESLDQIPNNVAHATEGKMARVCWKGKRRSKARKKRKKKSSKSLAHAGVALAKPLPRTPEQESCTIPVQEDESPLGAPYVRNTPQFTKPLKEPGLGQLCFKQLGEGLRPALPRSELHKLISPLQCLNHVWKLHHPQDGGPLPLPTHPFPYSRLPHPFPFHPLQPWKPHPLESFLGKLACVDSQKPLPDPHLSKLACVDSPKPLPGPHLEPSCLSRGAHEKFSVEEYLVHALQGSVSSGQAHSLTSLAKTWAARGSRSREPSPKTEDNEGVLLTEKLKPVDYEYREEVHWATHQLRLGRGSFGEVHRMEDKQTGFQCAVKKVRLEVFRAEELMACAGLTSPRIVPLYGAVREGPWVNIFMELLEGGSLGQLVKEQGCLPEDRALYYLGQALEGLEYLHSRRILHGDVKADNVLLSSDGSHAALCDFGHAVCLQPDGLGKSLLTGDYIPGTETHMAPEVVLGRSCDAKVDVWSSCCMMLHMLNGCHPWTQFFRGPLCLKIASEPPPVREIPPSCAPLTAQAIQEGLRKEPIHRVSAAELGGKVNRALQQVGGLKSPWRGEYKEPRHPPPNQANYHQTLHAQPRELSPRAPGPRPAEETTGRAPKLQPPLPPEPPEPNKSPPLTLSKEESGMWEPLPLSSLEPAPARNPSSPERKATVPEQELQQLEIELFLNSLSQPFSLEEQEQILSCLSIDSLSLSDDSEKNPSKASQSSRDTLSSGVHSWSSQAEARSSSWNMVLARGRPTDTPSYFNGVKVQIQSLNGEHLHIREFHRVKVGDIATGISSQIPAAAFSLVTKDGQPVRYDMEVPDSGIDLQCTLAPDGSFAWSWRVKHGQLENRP

As to `CN1CC[C@@](O)(C#Cc2cccc(-c3nc(C(N)=O)cc(N4CCOCC4)n3)c2)C1=O` [Example 2, 2-[3-[2-[(3R)-3-hydroxy-1-methyl-2-oxo-pyrrolidin-3-yl]ethynyl]phenyl]-6-morpholino-pyrimidine-4-carboxamide], in assay [1], the inhibition constant (Ki) (as a rule, a dissociation constant, usually derived from enzyme kinetics or from competition with a known ligand) was 1.73 nM. The IC50 (in general, the point on the concentration scale where inhibition reaches its midpoint) in assay [2] is above 20000 nM; in assay [3] it was 101 nM.
`CN1CC[C@@](O)(C#Cc2cccc(-c3nc(C(N)=O)c4ccccc4n3)c2)C1=O` [Example 4, 2-[3-[2-[(3R)-3-hydroxy-1-methyl-2-oxo-pyrrolidin-3-yl]ethynyl]phenyl]quinazoline-4-carboxamide] had an inhibition constant Ki in assay [1] of 0.05 nM. In addition, the IC50 in assay [2] is above 20000 nM; in assay [3] it was 31.9 nM.
In the case of `CN1CC[C@@](O)(C#Cc2cccc(-c3nc(C(N)=O)cc(N4CCCC4)n3)c2)C1=O` [Example 5, 2-[3-[2-[(3R)-3-hydroxy-1-methyl-2-oxo-pyrrolidin-3-yl]ethynyl]phenyl]-6-pyrrolidin-1-yl-pyrimidine-4-carboxamide], the Ki in assay [1] is 0.8 nM. Moreover, the IC50 in assay [2] is above 20000 nM; in assay [3], 122 nM.
As to `CN1CC[C@@](O)(C#Cc2cccc(-c3nc(C(N)=O)cc(N(C)C)n3)c2)C1=O` [Example 6, 6-(dimethylamino)-2-[3-[2-[(3R)-3-hydroxy-1-methyl-2-oxo-pyrrolidin-3-yl]ethynyl]phenyl] pyrimidine-4-carboxamide], the inhibition constant (Ki) in assay [1] was 0.83 nM. Besides, the concentration for half-maximal inhibition (IC50) in assay [2] was above 20000 nM; in assay [3], 108 nM.
Consider `CN1CC[C@@](O)(C#Cc2cccc(-c3nc(C(N)=O)cc(N4CC(F)(F)C4)n3)c2)C1=O` [Example 8, 6-(3,3-difluoroazetidin-1-yl)-2-[3-[2-[(3R)-3-hydroxy-1-methyl-2-oxo-pyrrolidin-3-yl]ethynyl]phenyl]pyrimidine-4-carboxamide], for which the inhibition constant (Ki) in assay [1] turned out to be 2.35 nM. Further, the results for the IC50 in assay [2] and in assay [3] were above 20000 nM and 211 nM, respectively.
Regarding `CN1CC[C@@](O)(C#Cc2cccc(-c3nc(NC4CC4)cc(C(N)=O)n3)c2)C1=O` [Example 9, 6-(cyclopropylamino)-2-[3-[2-[(3R)-3-hydroxy-1-methyl-2-oxo-pyrrolidin-3-yl]ethynyl]phenyl] pyrimidine-4-carboxamide], the inhibition constant (Ki) in assay [1] is 1.24 nM. In addition, the figures for the IC50 in assay [2] and in assay [3] were above 20000 nM and 270 nM, respectively.
For `COCCN(C)c1cc(C(N)=O)nc(-c2cccc(C#C[C@]3(O)CCN(C)C3=O)c2)n1` [Example 10, 2-[3-[2-[(3R)-3-hydroxy-1-methyl-2-oxo-pyrrolidin-3-yl]ethynyl]phenyl]-6-[2-methoxyethyl(methyl)amino] pyrimidine-4-carboxamide] the same measures were 1.17 nM, above 20000 nM and 266 nM.
In turn, `CN1CC[C@@](O)(C#Cc2cccc(-c3nc(C(N)=O)cc(N4CC5(COC5)C4)n3)c2)C1=O` [Example 11, 2-[3-[2-[(3R)-3-hydroxy-1-methyl-2-oxo-pyrrolidin-3-yl]ethynyl]phenyl]-6-(6-oxa-2-azaspiro[3.3]heptan-2-yl) pyrimidine-4-carboxamide] returned an inhibition constant Ki in assay [1] of 4.65 nM. For the same compound, the results for the IC50 in assay [2] and in assay [3] were above 20000 nM and 2500 nM, respectively.
`CNc1cc(C(N)=O)nc(-c2cccc(C#C[C@]3(O)CCN(C)C3=O)c2)n1` [Example 12, 2-[3-[2-[(3R)-3-hydroxy-1-methyl-2-oxo-pyrrolidin-3-yl]ethynyl]phenyl]-6-(methylamino)pyrimidine-4-carboxamide] had a Ki in assay [1] of 0.33 nM. Further, the half-maximal inhibitory concentration (IC50) in assay [2] is above 20000 nM; in assay [3] it was 236 nM.
On to `Cc1cc(C(N)=O)nc(-c2cccc(C#C[C@]3(O)CCN(C)C3=O)c2)n1` [Example 13, 2-[3-[2-[(3R)-3-hydroxy-1-methyl-2-oxo-pyrrolidin-3-yl]ethynyl]phenyl]-6-methyl-pyrimidine-4-carboxamide], for which, in assay [1], the inhibitory constant (Ki) worked out at 0.48 nM. Further, the concentration for half-maximal inhibition (IC50) was above 20000 nM in assay [2] and 382 nM in assay [3].
In turn, `CN1CC[C@@](O)(C#Cc2cccc(-c3nc(N)cc(C(N)=O)n3)c2)C1=O` [Example 14, 6-amino-2-[3-[2-[(3R)-3-hydroxy-1-methyl-2-oxo-pyrrolidin-3-yl]ethynyl]phenyl]pyrimidine-4-carboxamide] returned a Ki in assay [1] of 0.38 nM. Further, the figures for the IC50 in assay [2] and in assay [3] were above 20000 nM and 665 nM, respectively.
The matching figures for `CN1CC[C@@](O)(C#Cc2cccc(-c3nc(C(N)=O)ccc3F)c2)C1=O` [Example 15, 5-fluoro-6-[3-[2-[(3R)-3-hydroxy-1-methyl-2-oxo-pyrrolidin-3-yl]ethynyl]phenyl] pyridine-2-carboxamide]: 1.21 nM, above 20000 nM and 630 nM.
`CC(C)c1cc(C(N)=O)nc(-c2cccc(C#C[C@]3(O)CCN(C)C3=O)c2)n1` [Example 16, 2-[3-[2-[(3R)-3-hydroxy-1-methyl-2-oxo-pyrrolidin-3-yl]ethynyl]phenyl]-6-isopropyl-pyrimidine-4-carboxamide] registered an inhibition constant (Ki) in assay [1] of 0.54 nM. Further, the 50% inhibitory concentration (IC50) in assay [2] was above 20000 nM; in assay [3], 191 nM.
The matching figures for `CN1CC[C@@](O)(C#Cc2cccc(-c3nc(C(N)=O)cc(C(F)(F)F)n3)c2)C1=O` [Example 17, 2-[3-[2-[(3R)-3-hydroxy-1-methyl-2-oxo-pyrrolidin-3-yl]ethynyl]phenyl]-6-(trifluoromethyl)pyrimidine-4-carboxamide]: 0.84 nM, above 20000 nM and 225 nM.
The compound `COCC1CCCN1c1cc(C(N)=O)nc(-c2cccc(C#C[C@]3(O)CCN(C)C3=O)c2)n1` (stereo partly drawn) [Example 18, 2-[3-[2-[(3R)-3-hydroxy-1-methyl-2-oxo-pyrrolidin-3-yl]ethynyl]phenyl]-6-[2-(methoxymethyl)pyrrolidin-1-yl]pyrimidine-4-carboxamide] gave a Ki in assay [1] of 2.19 nM. Moreover, the half-maximal inhibitory concentration (IC50) in assay [2] was above 20000 nM; in assay [3], 39 nM.
Regarding `CON(C)c1cc(C(N)=O)nc(-c2cccc(C#C[C@]3(O)CCN(C)C3=O)c2)n1` [Example 19, 2-[3-[2-[(3R)-3-hydroxy-1-methyl-2-oxo-pyrrolidin-3-yl]ethynyl]phenyl]-6-[methoxy (methyl)amino]pyrimidine-4-carboxamide], the affinity in assay [1], expressed as Ki, was 1.1 nM. The IC50 was above 20000 nM in assay [2] and 45.5 nM in assay [3].
Regarding `CN1CC[C@@](O)(C#Cc2cccc(-c3nc(C(N)=O)cc(N4CCc5ccccc54)n3)c2)C1=O` [Example 20, 2-[3-[2-[(3R)-3-hydroxy-1-methyl-2-oxo-pyrrolidin-3-yl]ethynyl]phenyl]-6-indolin-1-yl-pyrimidine-4-carboxamide], the affinity in assay [1], expressed as Ki, was 0.79 nM. For the same compound, the IC50 amounted to 19100 nM in assay [2] and 374 nM in assay [3].
Take `CN1CC[C@@](O)(C#Cc2cccc(-c3nc(C(N)=O)cc(N4CCCC45COC5)n3)c2)C1=O` [Example 21, 2-[3-[2-[(3R)-3-hydroxy-1-methyl-2-oxo-pyrrolidin-3-yl]ethynyl]phenyl]-6-(2-oxa-8-azaspiro[3.4]octan-8-yl) pyrimidine-4-carboxamide]: the Ki in assay [1] was 1.2 nM. Further, the IC50 in assay [2] is above 20000 nM; in assay [3], 84.2 nM.
In turn, `C[C@@H]1CCN1c1cc(C(N)=O)nc(-c2cccc(C#C[C@]3(O)CCN(C)C3=O)c2)n1` [Example 22, 2-[3-[2-[(3R)-3-hydroxy-1-methyl-2-oxo-pyrrolidin-3-yl]ethynyl]phenyl]-6-[(2R)-2-methylazetidin-1-yl]pyrimidine-4-carboxamide] gave a Ki in assay [1] of 1.14 nM. Moreover, the IC50 in assay [2] was above 20000 nM; in assay [3], 85 nM.
Compound `C[C@H]1CCN1c1cc(C(N)=O)nc(-c2cccc(C#C[C@]3(O)CCN(C)C3=O)c2)n1` [Example 23, 2-[3-[2-[(3R)-3-hydroxy-1-methyl-2-oxo-pyrrolidin-3-yl]ethynyl]phenyl]-6-[(2S)-2-methylazetidin-1-yl] pyrimidine-4-carboxamide] yielded an inhibition constant (Ki) in assay [1] of 1.48 nM. For the same compound, the results for the IC50 in assay [2] and in assay [3] were above 20000 nM and 96.1 nM, respectively.
In turn, `CN1CC[C@@](O)(C#Cc2cccc(-c3nc(C(N)=O)cc(N4CC[C@@H]4c4cccs4)n3)c2)C1=O` [Example 26, 2-[3-[2-[(3R)-3-hydroxy-1-methyl-2-oxo-pyrrolidin-3-yl]ethynyl]phenyl]-6-[(2R)-2-(2-thienyl)azetidin-1-yl] pyrimidine-4-carboxamide] yielded an inhibition constant (Ki) in assay [1] of 4.85 nM. The half-inhibitory concentration (IC50) was above 20000 nM in assay [2] and 110 nM in assay [3].
